Structures are written as SMILES.

Mast/stem cell growth factor receptor Kit, sequence (P10721 whole entry): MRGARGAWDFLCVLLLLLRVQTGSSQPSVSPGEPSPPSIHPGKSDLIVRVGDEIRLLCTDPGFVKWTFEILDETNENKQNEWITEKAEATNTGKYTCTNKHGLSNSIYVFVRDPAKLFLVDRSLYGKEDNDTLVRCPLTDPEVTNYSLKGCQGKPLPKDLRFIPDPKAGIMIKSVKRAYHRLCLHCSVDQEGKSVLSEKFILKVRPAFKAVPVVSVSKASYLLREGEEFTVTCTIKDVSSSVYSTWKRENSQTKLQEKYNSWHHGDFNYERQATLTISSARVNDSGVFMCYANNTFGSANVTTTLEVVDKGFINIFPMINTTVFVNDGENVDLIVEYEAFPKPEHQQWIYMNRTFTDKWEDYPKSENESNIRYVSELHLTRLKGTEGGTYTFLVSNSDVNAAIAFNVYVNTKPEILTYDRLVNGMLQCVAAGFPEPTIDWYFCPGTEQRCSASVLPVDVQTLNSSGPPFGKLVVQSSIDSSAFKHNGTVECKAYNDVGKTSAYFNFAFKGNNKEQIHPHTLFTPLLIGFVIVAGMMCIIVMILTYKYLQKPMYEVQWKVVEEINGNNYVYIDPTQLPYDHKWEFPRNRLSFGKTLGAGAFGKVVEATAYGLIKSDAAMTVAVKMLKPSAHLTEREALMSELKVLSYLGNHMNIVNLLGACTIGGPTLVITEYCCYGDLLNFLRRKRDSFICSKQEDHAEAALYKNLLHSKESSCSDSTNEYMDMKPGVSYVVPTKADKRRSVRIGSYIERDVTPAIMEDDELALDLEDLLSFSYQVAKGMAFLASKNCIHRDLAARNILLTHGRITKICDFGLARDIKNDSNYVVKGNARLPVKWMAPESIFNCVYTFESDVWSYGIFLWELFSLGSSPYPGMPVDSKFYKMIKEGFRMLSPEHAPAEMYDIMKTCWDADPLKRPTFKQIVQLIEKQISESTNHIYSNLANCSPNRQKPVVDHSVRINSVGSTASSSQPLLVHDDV

For the experiment, the target named is Mast/stem cell growth factor receptor Kit (Homo sapiens, UniProt P10721). Description: c-KIT Kinase Assay. As to the method:
Kinase Reaction: The kinase assay was based on the recommended protocol by c-KIT Kinase Enzyme System from Promega. Recombinant human c-KIT kinase in 3 μL of assay buffer (40 mM Tris pH 7.5, 20 mM MgCl2, 0.1 mg/mL BSA and 50 μM DTT) was added to the test or high control wells and 3 μL of assay buffer was added to the low control wells. The microplate was centrifuged at 800 rotations per minute (rpm) for 60 s and incubated at room temperature (RT) for 30 min. Next, 2 μL of buffered ATP and polyEY substrate solution was added to all wells. The microplate was centrifuged at 800 rpm for 60 s and incubated at RT for 2 h. […] ADP detection with ADP-Glo™ Kinase Assay: After the kinase reaction incubation, 5 μL of ADP-Glo™ reagent was added to all wells. The microplate was centrifuged at 800 rpm for 60 s and incubated at RT for 40 min. Ten microliter (10 μL) of Kinase Detection Reagent (Luciferin-Luciferase system) was then added to all wells. The microplate was centrifuged at 800 rpm for 60 s and incubated at RT for 60 min. Kinase activity was measured as increase in luminescence at RT in an Envision plate reader equipped with 560 nm filters and operating in endpoint mode.
On to `Cc1ccc(-c2noc(C3C[C@@H]3F)n2)cc1NC(=O)c1cnn2ccc(-c3cnn(C(F)F)c3)cc12` (stereo partly drawn) [US20250059174, Example 2a], for which the IC50 was less than 0.1 µM.

As to `Cc1ccc(-c2noc([C@H]3C[C@@H]3F)n2)cc1NC(=O)c1cnc(N2CC(C(=O)O)C2)s1` [US20250059174, Example 98-4], the IC50 was greater than 1 µM. As to `Cc1ccc(-c2noc(C3C[C@@H]3F)n2)cc1NC(=O)c1cnn2ccc(N3C[C@H](CS(C)(=O)=O)[C@@H]3C)cc12` (stereo partly drawn) [US20250059174, Example 172], the IC50 was less than 0.1 µM.

What is called IC50 is the concentration that gives 50% inhibition. A high value points to lower potency.

(Values after BindingDB's records for patent US20250059174 (Enanta Pharmaceuticals, 2025).)
